Assay results: ChEMBL document CHEMBL3885881, “DrugMatrix”

Species: Rattus norvegicus
Assay: DrugMatrix - Regimen: Daily Repeat
Assay type: toxicity, organism-based, Sprague-Dawley
Set-up: regimen Daily Repeat, gender Male, age 6-8 weeks
Conditions: in vivo, po, route oral GAVAGE, vehicle .5 % CMC; for ABSOLUTE EOSINOPHIL / ABSOLUTE LYMPHOCYTE / ABSOLUTE MONOCYTE / ABSOLUTE SEGMENTED NEUTROPHIL / BASOPHIL / EOSINOPHIL / ERYTHROCYTE COUNT / HEMATOCRIT / HEMOGLOBIN / LEUKOCYTE COUNT / LYMPHOCYTE / MEAN CORPUSCULAR HEMOGLOBIN CONCENTRATION / MEAN CORPUSCULAR VOLUME / MONOCYTE / NEUTROPHIL / NUCLEATED RED BLOOD CELLS / PLATELET COUNT / ABSOLUTE BASOPHIL: tissue Blood; for ALANINE AMINOTRANSFERASE / ALBUMIN / ALKALINE PHOSPHATASE / BLOOD UREA NITROGEN / CARBON DIOXIDE / CHLORIDE / CHOLESTEROL / CREATINE PHOSPHOKINASE / CREATININE / GLUCOSE / LACTATE DEHYDROGENASE / LIPASE / PHOSPHORUS / POTASSIUM / SODIUM / TOTAL BILIRUBIN / TOTAL PROTEIN: tissue Plasma
[1] = 60 mg/kg, 120 h, dose level High, time 5 day
[2] = […], 72 h, dose 1.5 mg/Kg, dose level Low, time 3 day
[3] = […], 120 h, dose 1.5 mg/Kg, dose level Low, time 5 day

CO[C@H]1C[C@@H]2CC[C@@H](C)[C@@](O)(O2)C(=O)C(=O)N2CCCC[C@H]2C(=O)O[C@H]([C@H](C)C[C@@H]2CC[C@@H](O)[C@H](OC)C2)CC(=O)[C@H](C)/C=C(\C)[C@@H](O)[C@@H](OC)C(=O)[C@H](C)C[C@H](C)/C=C/C=C/C=C/1C [SIROLIMUS]
ABSOLUTE EOSINOPHIL [1]: 0 CELLS/uL | ABSOLUTE LYMPHOCYTE [1]: 6680.33 CELLS/uL | ABSOLUTE MONOCYTE [1]: 49.67 CELLS/uL | ABSOLUTE SEGMENTED NEUTROPHIL [1]: 670 CELLS/uL | BASOPHIL [1]: 0% | EOSINOPHIL [1]: 0% | ERYTHROCYTE COUNT [1]: 6.63 x10E6/uL | HEMATOCRIT [1]: 40% | HEMOGLOBIN [1]: 15.77 G/DL | LEUKOCYTE COUNT [1]: 7.4 x10E3/uL | LYMPHOCYTE [1]: 90.33% | MEAN CORPUSCULAR HEMOGLOBIN CONCENTRATION [1]: 39.4 G/DL | MEAN CORPUSCULAR VOLUME [1]: 60.43 fL | MONOCYTE [1]: 0.67% | NEUTROPHIL [1]: 9% | NUCLEATED RED BLOOD CELLS [1]: 0 /100WBC | PLATELET COUNT [1]: 709.33 x10E3/uL | ALANINE AMINOTRANSFERASE [1]: 49.33 u/L | ALBUMIN [1]: 4.2 G/DL | ALKALINE PHOSPHATASE [1]: 311.67 u/L | BLOOD UREA NITROGEN [1]: 20.67 mg/dL | CARBON DIOXIDE [1]: 28.33 mmol/L | CHLORIDE [1]: 99.67 MEQ/L | CHOLESTEROL [1]: 81.67 mg/dL | CREATINE PHOSPHOKINASE [1]: 479 u/L | CREATININE [1]: 0.24 mg/dL | GLUCOSE [1]: 202.33 mg/dL | LACTATE DEHYDROGENASE [1]: 231.33 u/L | LIPASE [1]: 9.67 u/L | PHOSPHORUS [1]: 10.43 mg/dL | POTASSIUM [1]: 4.97 MEQ/L | SODIUM [1]: 145.27 MEQ/L | TOTAL BILIRUBIN [1]: 0.2 mg/dL | TOTAL PROTEIN [1]: 6.23 G/DL | ABSOLUTE BASOPHIL [2]: 0 CELLS/uL | ABSOLUTE EOSINOPHIL [2]: 267 CELLS/uL | ABSOLUTE LYMPHOCYTE [2]: 13791 CELLS/uL | ABSOLUTE MONOCYTE [2]: 267 CELLS/uL | ABSOLUTE SEGMENTED NEUTROPHIL [2]: 1575 CELLS/uL | BASOPHIL [2]: 0% | EOSINOPHIL [2]: 1.67% | ERYTHROCYTE COUNT [2]: 5.63 x10E6/uL | HEMATOCRIT [2]: 36.33% | HEMOGLOBIN [2]: 13.8 G/DL | LEUKOCYTE COUNT [2]: 15.9 x10E3/uL | LYMPHOCYTE [2]: 87% | MEAN CORPUSCULAR HEMOGLOBIN CONCENTRATION [2]: 38 G/DL | MEAN CORPUSCULAR VOLUME [2]: 64.5 fL | MONOCYTE [2]: 1.67% | NEUTROPHIL [2]: 9.67% | NUCLEATED RED BLOOD CELLS [2]: 0 /100WBC | PLATELET COUNT [2]: 1156 x10E3/uL | ALANINE AMINOTRANSFERASE [2]: 52.33 u/L | ALBUMIN [2]: 4.23 G/DL | ALKALINE PHOSPHATASE [2]: 361.33 u/L | BLOOD UREA NITROGEN [2]: 17.33 mg/dL | CARBON DIOXIDE [2]: 27.33 mmol/L | CHLORIDE [2]: 99 MEQ/L | CHOLESTEROL [2]: 79.33 mg/dL | CREATINE PHOSPHOKINASE [2]: 205.33 u/L | CREATININE [2]: 0.21 mg/dL | GLUCOSE [2]: 162 mg/dL | LACTATE DEHYDROGENASE [2]: 201.67 u/L | LIPASE [2]: 10 u/L | PHOSPHORUS [2]: 12.33 mg/dL | POTASSIUM [2]: 6.49 MEQ/L | SODIUM [2]: 144 MEQ/L | TOTAL BILIRUBIN [2]: 0.2 mg/dL | TOTAL PROTEIN [2]: 6 G/DL | ABSOLUTE BASOPHIL [3]: 0 CELLS/uL | ABSOLUTE EOSINOPHIL [3]: 0 CELLS/uL | ABSOLUTE LYMPHOCYTE [3]: 12718.33 CELLS/uL | ABSOLUTE MONOCYTE [3]: 96 CELLS/uL | ABSOLUTE SEGMENTED NEUTROPHIL [3]: 1619 CELLS/uL | BASOPHIL [3]: 0% | EOSINOPHIL [3]: 0% | ERYTHROCYTE COUNT [3]: 5.45 x10E6/uL | HEMATOCRIT [3]: 33.87% | HEMOGLOBIN [3]: 13.8 G/DL | LEUKOCYTE COUNT [3]: 14.43 x10E3/uL | LYMPHOCYTE [3]: 87.67% | MEAN CORPUSCULAR HEMOGLOBIN CONCENTRATION [3]: 40.77 G/DL | MEAN CORPUSCULAR VOLUME [3]: 62.2 fL | MONOCYTE [3]: 0.67% | NEUTROPHIL [3]: 11.67% | NUCLEATED RED BLOOD CELLS [3]: 0 /100WBC | PLATELET COUNT [3]: 1286.33 x10E3/uL | ALANINE AMINOTRANSFERASE [3]: 92.33 u/L | ALBUMIN [3]: 3.8 G/DL | ALKALINE PHOSPHATASE [3]: 328.67 u/L | BLOOD UREA NITROGEN [3]: 17.33 mg/dL | CARBON DIOXIDE [3]: 20.33 mmol/L | CHLORIDE [3]: 99 MEQ/L | CHOLESTEROL [3]: 66.67 mg/dL | CREATINE PHOSPHOKINASE [3]: 1089 u/L | CREATININE [3]: 0.25 mg/dL | GLUCOSE [3]: 251.33 mg/dL | LACTATE DEHYDROGENASE [3]: 725.33 u/L | LIPASE [3]: 11 u/L | PHOSPHORUS [3]: 14.07 mg/dL | POTASSIUM [3]: 6.17 MEQ/L | SODIUM [3]: 142.93 MEQ/L | TOTAL BILIRUBIN [3]: 0.2 mg/dL | TOTAL PROTEIN [3]: 5.43 G/DL
